According to paper PMC6838683, “Discovery of Human Signaling Systems: Pairing Peptides to G Protein-Coupled Receptors” (Cell, 2019):
Positions of bridges follow the written chain, without caps; N, C: chain ends. Residues, ends and D or L forms follow the SMILES beside them.

How the values were obtained:
GPR139 [1] = target: T1, GPR139 (Homo sapiens, UniProt Q6DWJ6); assay: Repeat of proposed literature pairing (mass redistribution and/or internalization); format: cell-based; conditions: GPR139
T1 construct: hIL-2Ra signal peptide (N); expressed in transfected cells
T1 sequence (Q6DWJ6 2-353 limits assumed): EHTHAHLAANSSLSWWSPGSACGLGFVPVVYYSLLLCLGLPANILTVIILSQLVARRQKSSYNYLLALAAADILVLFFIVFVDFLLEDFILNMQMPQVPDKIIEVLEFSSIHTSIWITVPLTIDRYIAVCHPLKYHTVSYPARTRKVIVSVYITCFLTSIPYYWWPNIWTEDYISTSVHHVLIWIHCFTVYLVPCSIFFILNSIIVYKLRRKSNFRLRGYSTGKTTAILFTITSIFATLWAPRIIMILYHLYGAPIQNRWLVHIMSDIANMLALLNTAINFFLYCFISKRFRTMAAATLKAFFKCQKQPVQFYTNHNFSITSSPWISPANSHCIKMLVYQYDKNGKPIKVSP
Source text: DMR assays provide a single integrated readout of ligand-dependent cellular response, utilizing an optical biosensor in specialized microplates to detect wavelength shifts of reflected light as it passes through the biosensor and the lower portion of the cell (∼150-200 nm). As a signal pathway agnostic approach, DMR assays are well-suited to the study of GPCRs ([Fang et al., 2008], [Schröder et al., 2011]). The mass redistribution response (Δ picometer (pm)) likely reflects a number of intracellular events, including cytoskeletal rearrangement, protein trafficking and receptor internalization. Orphan receptor-expressing cells were gently washed twice with assay buffer (HBSS with 1 mM CaCl2, 1 mM MgCl2, 20 mM HEPES, 0.01% pluronic F-68, pH 7.4) containing 0.1% DMSO and cells were equilibrated for 90 min at 22°C in the EPIC Benchtop (BT) System (Corning) to establish a stable DMR signal. After 3-5 min baseline recordings, peptides (10 μM) were added in duplicate wells using an electronic 384-channel Viaflo pipette (Integra Biosciences, Switzerland) and DMR responses were measured for 60 min at 22°C. 100 nM norepinephrine was included as an internal assay control to assess the cellular DMR response via endogenously-expressed adrenoceptors in the TREx 293 cells. Real-time data were processed using the BT to column converter MS-Excel macro (Corning) and analyzed in GraphPad Prism 7.0. DMR recordings in peptide screening experiments were buffer and solvent corrected and the area under the curve (AUC) was quantified. For subsequent validation experiments, peptides were diluted in assay buffer containing 0.1% DMSO and DMR assays were performed as above. […] Data represent mean ± standard error of the mean (SEM) from at least 3 biologically independent experiments.
A TR-FRET real-time internalization assay was used to examine peptide-dependent changes in orphan receptor localization as described previously ([Foster and Bräuner-Osborne, 2018]). Surface-expressed SNAP-tagged receptors were labeled with a cell-impermeable luminescent terbium cryptate (100 nM SNAP Lumi4-Tb; Cisbio, France) for 1 hr at 37°C. Cells were washed to remove excess terbium and incubated with fluorescein-O-acetic acid (100 μM; Sigma Aldrich) for 5 min at 37°C. Peptides were added as for DMR assays, and internalization responses were recorded for 60 min at 37°C using an EnVision 2104 Multimode plate reader (PerkinElmer). 100 nM GLP-1 was used as a positive control for SNAP-GLP1R internalization. Real-time internalization responses were calculated based on TR-FRET (excitation 340 nm; emission 520 nm and 615 nm), and were expressed as the ratio between donor (terbium) and acceptor (fluorescein) emission. For peptide screening analysis (both DMR and internalization assays), we calculated the area under the curve from the real-time traces. […] Validation experiments for receptor internalization were performed as above. Internalization data was processed in MS-Excel and area under the curve was used to generate concentration-response curves using GraphPad Prism 7.0. Data represent mean ± standard error of the mean (SEM) from at least 3 biologically independent experiments.

GPR139 [2] = target: T1, GPR139; assay: IP1 accumulation; format: cell-based; conditions: mean, SEM and n
Source text: Supplement mmc7.xlsx, sheet "Peptide validation data" | column: Emax; pEC50

GPR139 [3] = target: T1, GPR139; assay: β-arrestin recruitment (Tango), validation; format: cell-based
Source text: (§1) Supplement mmc7.xlsx, sheet "Peptide validation data" | column: Comment

GPR55 [4] = target: T2, GPR55 (Homo sapiens, UniProt Q9Y2T6); assay: Dynamic mass redistribution (DMR), concentration-response; format: cell-based; set-up: hIL-2Ra signal peptide (N); expressed in transfected cells; conditions: GPR55, data from single experiment (n = 1)
Outline: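 Doxycycline-induced (0.1 μg/ml) SNAP-tagged receptors in TREx 293 cells, equilibrated 90 min at 22°C in HEPES-buffered HBSS, pH 7.4, with 0.1% DMSO. Peptide-evoked optical wavelength shift recorded for 60 min at 22°C, buffer/solvent corrected and quantified as area under the curve. Mean ± SEM of at least 3 independent experiments.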

GPR55 [5] = target: T2, GPR55; assay: Real-time receptor internalization (TR-FRET), concentration-response; format: cell-based; set-up: hIL-2Ra signal peptide (N); expressed in transfected cells; conditions: GPR55, data from single experiment (n = 1)
Outline: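 Doxycycline-induced (0.1 μg/ml) SNAP-tagged receptor cells had surface receptors labeled with 100 nM Lumi4-Tb for 1 h at 37°C, then 100 μM fluorescein-O-acetic acid for 5 min. Peptide-induced internalization was recorded by TR-FRET for 60 min at 37°C as donor/acceptor emission ratio. Area under the curve gave concentration-response curves; mean ± SEM, ≥3 independent experiments.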

GPR55 [6] = target: T2, GPR55; assay: β-arrestin recruitment (Tango); format: cell-based; set-up: hIL-2Ra signal peptide (N); expressed in transfected cells
GPR176 [7] = target: T3, GPR176 (Homo sapiens, UniProt Q14439); assay: Dynamic mass redistribution (DMR), validation; format: cell-based
T3 construct: host or cells: HTLA cells (HEK293-derived)
T3 sequence (Q14439 1-515): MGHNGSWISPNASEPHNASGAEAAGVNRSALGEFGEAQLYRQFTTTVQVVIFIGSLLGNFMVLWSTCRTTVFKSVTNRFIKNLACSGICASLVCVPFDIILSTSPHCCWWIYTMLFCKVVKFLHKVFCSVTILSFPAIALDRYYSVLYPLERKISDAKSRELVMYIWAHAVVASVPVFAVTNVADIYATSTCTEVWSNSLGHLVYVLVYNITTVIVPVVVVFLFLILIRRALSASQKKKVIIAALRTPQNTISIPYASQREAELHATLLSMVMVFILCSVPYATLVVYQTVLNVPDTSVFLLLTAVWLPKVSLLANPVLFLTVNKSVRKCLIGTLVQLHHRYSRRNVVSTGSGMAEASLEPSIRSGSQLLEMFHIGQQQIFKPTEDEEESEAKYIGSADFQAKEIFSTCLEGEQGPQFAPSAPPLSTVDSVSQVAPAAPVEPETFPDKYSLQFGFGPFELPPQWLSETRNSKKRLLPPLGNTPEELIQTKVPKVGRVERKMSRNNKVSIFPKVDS
Source text: as §1

GPR176 [8] = target: T3, GPR176; assay: Real-time receptor internalization, validation; format: cell-based
Source text: as §1

GPR176 [9] = target: T3, GPR176; assay: β-arrestin recruitment (Tango), indicative pairing; format: cell-based; conditions: mean, n = 3
[10] = system: 120 GPCR targets, including all available orphan receptors and 27 known class A peptide receptors; assay: Peptide library screen, β-arrestin recruitment (Tango, fold change, 10 μM); format: cell-based, human; conditions: Tango; receptor(s) at which the known library peptide was active, among its known GPCR target(s); validated pairings
Outline: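 HTLA cells (HEK293 with tTA-dependent luciferase and β-arrestin2-TEV) transiently transfected with Tango GPCR constructs, then stimulated overnight with 10 μM peptides in 1% dFBS medium. Luciferase luminescence read after 15–20 min Bright-Glo incubation at room temperature.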

GPR176 [11] = target: T3, GPR176; assay: Dynamic mass redistribution (DMR, AUC), peptide validation; format: cell-based; conditions: Emax and pEC50 n.d., n = 2
Source text: as §1

GPR176 [12] = target: T3, GPR176; assay: Real-time receptor internalization (AUC), peptide validation; format: cell-based; conditions: Emax and pEC50 n.d., n = 2
Source text: as §1

T2 sequence (Q9Y2T6 2-319 limits assumed): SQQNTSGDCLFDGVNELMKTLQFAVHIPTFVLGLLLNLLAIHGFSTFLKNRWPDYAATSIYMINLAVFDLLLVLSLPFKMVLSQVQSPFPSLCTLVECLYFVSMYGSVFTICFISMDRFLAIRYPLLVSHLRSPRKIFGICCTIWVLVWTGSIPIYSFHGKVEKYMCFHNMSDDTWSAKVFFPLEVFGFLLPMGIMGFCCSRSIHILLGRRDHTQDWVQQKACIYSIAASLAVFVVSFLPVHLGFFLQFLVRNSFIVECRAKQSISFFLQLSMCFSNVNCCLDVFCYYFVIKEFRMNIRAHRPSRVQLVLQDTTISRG

## CSCC[C@H](NC(=O)[C@H](CO)NC(=O)[C@H](Cc1ccc(O)cc1)NC(=O)[C@@H](N)CO)C(=O)N[C@@H](CCC(=O)O)C(=O)N[C@@H](Cc1c[nH]cn1)C(=O)N[C@@H](Cc1ccccc1)C(=O)N[C@@H](CCCNC(=N)N)C(=O)N[C@@H](Cc1c[nH]c2ccccc12)C(=O)NCC(=O)N[C@@H](CCCCN)C(=O)N1CCC[C@H]1C(=O)N[C@H](C(N)=O)C(C)C [Alpha-MSH (des-acetyl MSH)]
GPR139 [1]; data from single experiment (n = 1)
  Emax, Internalization (AUC): 2.9
GPR139 [1]; mean, SEM and n
  Emax, DMR (peak): 39.5
GPR139 [1]; mean, SEM and n, read-out: pEC50, DMR (peak) (converted)
  EC50: 0.0363 µM
GPR139 [2]
  Emax, IP1: 60.8 nM
GPR139 [2]; read-out: pEC50, IP1 (converted)
  EC50: 10 µM
GPR139 [3]
  Comment on response, Tango (fold over basal); Emax and pEC50 n.d.: No response

## CC[C@H](C)[C@H](NC(=O)[C@@H](NC(=O)[C@H](Cc1c[nH]c2ccccc12)NC(=O)[C@H](CCC(=O)O)NC(=O)[C@H](CO)NC(=O)[C@@H](NC(=O)[C@H](CO)NC(=O)[C@@H]1CSSC[C@H](NC(=O)[C@H](CC(=O)O)NC(=O)[C@@H](N)CCC(=O)O)C(=O)N[C@@H](CCCCN)C(=O)N[C@@H](Cc2ccc(O)cc2)C(=O)N[C@@H]([C@@H](C)CC)C(=O)N[C@@H](C(C)C)C(=O)N[C@@H](C(C)C)C(=O)N[C@@H](CCC(=O)O)C(=O)N[C@@H](CCCCN)C(=O)N[C@@H](CCCCN)C(=O)N[C@@H](CC(=O)O)C(=O)N2CCC[C@H]2C(=O)N[C@@H](CCCCN)C(=O)N[C@@H](CCCCN)C(=O)N[C@@H]([C@@H](C)O)C(=O)N1)C(C)C)[C@@H](C)CC)C(=O)O [MSMB (91-114)] (H-EDCKYIVVEKKDPKKTCSVSEWII-OH; disulfide 3-17; N-terminus and C-terminus assumed)
GPR55 [4]
  Emax, DMR (AUC): 169875.0
GPR55 [4]; read-out: pEC50, DMR (AUC) (converted)
  EC50: 0.224 µM
GPR55 [5]
  Emax, Internalization (AUC): 37.6
GPR55 [5]; read-out: pEC50, Internalization (AUC) (converted)
  EC50: 2.69 µM
GPR55 [6]
  Comment on response, Tango (fold over basal); Emax and pEC50 n.d.: No response

## RSVNPYLQ [SCG5 (181-188)]
GPR176 [7]
  Comment on response, DMR (AUC); Emax and pEC50 n.d.: No response
GPR176 [8]
  Comment on response, Internalization (AUC); Emax and pEC50 n.d.: No response

## SYSMEHFRWGKPVGKKRRPVKVYPNGAEDESAEAFPLEF [Peptide 208]
GPR176 [9]
  Emax, Tango (fold over basal): 8.0 fold over basal
  pEC50, Tango (fold over basal): 5.06
[10]
  Active at: (activity in b-arrestin recruitment assays): MC4R
GPR176 [11]
  Comment, DMR (AUC): No response
GPR176 [12]
  Comment, Internalization (AUC): No response
